Data from patent publication US10821059B2, “Cleansing bars” (priority 2015, dated 2020).

Test: Piroctone olamine as a phenoxyethanol solution
Format: physicochemical
Settings: if heated, for example to 80° C.
Procedure: In some embodiments, piroctone olamine is dissolved in a suitable amount of phenoxyethanol; i.e., all or part of the phenoxyethanol of the composition can be employed as the solvent for the piroctone olamine. Typically, where phenoxyethanol is the solvent for the piroctone olamine pre-mix or pre-solution, the piroctone olamine is present in the pre-mixture or pre-solution in an amount of from 1-30% by weight; for example 5%, 10%, 15%, 20%, 25% or 30% by weight. In such embodiments, the mixture including the piroctone olamine and phenoxyethanol is preferably heated to a temperature of from 50-120° C.; for example from 60-100° C.; for example from 65-80° C.; preferably to effect partial or complete dissolution of the piroctone olamine.
The data above show the feasibility of adding piroctone olamine as a phenoxyethanol solution up to at least 30% w/w during bar soap manufacturing, if heated, for example to 80° C. Furthermore, some piroctone olamine can optionally be supplemented as a solution in a further solvent, such as a fragrance or a fragrance dissolved in a solvent, preferably up to 7.5% at room temperature.

Cc1cc(CC(C)CC(C)(C)C)n(O)c(=O)c1.NCCO (stereo not shown) [piroctone olamine]
piroctone olamine as a phenoxyethanol solution, feasible concentration: at least 30 % w/w
